Measurements taken from PubChem BioAssay AID330 (DTP/NCI, 2004).
Where “and” joins values, the source holds several entries; their conditions need not be identical. Equal values may be shown once. Toxic doses and inconclusive results are not listed. The calls were made as follows: active = survival T/C of 150% or more; inactive = T/C below 125% in these data. Peptide text beside a SMILES is read from it. * marks the point of attachment. Cbz = O=C(OCc1ccccc1)*; Bn = c1ccc(C*)cc1

Tested on: P388 leukemia ip, CD2F1 mice, survival T/C
Assay: NCI In Vivo Anticancer Drug Screen. Data for tumor model P388 Leukemia (intraperitoneal) in CD2F1 (CDF1) mice
Conditions: endpoint: median survival time, higher = longer survival
How it was run: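 Mice carrying the transplanted tumor received test compound or vehicle. Survival was recorded in each group, and the value is the treated-group measurement divided by that of the vehicle-treated control group.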

[1] = dose: 50.0 mg/kg/injection, schedule: Q01DX009 (ip), vehicle: saline with Tween-80
[2] = dose: 100.0 mg/kg/injection, schedule: Q01DX009 (ip), vehicle: saline with Tween-80
[3] = dose: 200.0 mg/kg/injection, schedule: Q01DX009 (ip), vehicle: saline with Tween-80
[4] = dose: 50.0 mg/kg/injection, schedule: Q01DX005 (ip), vehicle: saline with Tween-80
[5] = dose: 100.0 mg/kg/injection, schedule: Q01DX005 (ip), vehicle: saline with Tween-80
[6] = dose: 6.25 mg/kg/injection, schedule: Q01DX005 (ip), vehicle: Klucel (hydroxypropylcellulose) (HPC)
[7] = dose: 12.5 mg/kg/injection, schedule: Q01DX005 (ip), vehicle: Klucel (hydroxypropylcellulose) (HPC)
[8] = dose: 25.0 mg/kg/injection, schedule: Q01DX005 (ip), vehicle: Klucel (hydroxypropylcellulose) (HPC)
[9] = dose: 25.0 mg/kg/injection, schedule: Q01DX009 (ip), vehicle: saline with Tween-80
[10] = dose: 200.0 mg/kg/injection, schedule: Q01DX005 (ip), vehicle: saline with Tween-80
[11] = dose: 60.0 mg/kg/injection, schedule: Q01DX005 (ip), vehicle: saline with Tween-80
[12] = dose: 50.0 mg/kg/injection, schedule: Q01DX009 (ip), vehicle: saline
[13] = dose: 100.0 mg/kg/injection, schedule: Q01DX009 (ip), vehicle: saline
[14] = dose: 200.0 mg/kg/injection, schedule: Q01DX009 (ip), vehicle: saline
[15] = dose: 120.0 mg/kg/injection, schedule: Q01DX005 (ip), vehicle: saline with Tween-80
[16] = dose: 240.0 mg/kg/injection, schedule: Q01DX005 (ip), vehicle: saline with Tween-80
[17] = dose: 50.0 mg/kg/injection, schedule: Q01DX005 (ip), vehicle: Klucel (hydroxypropylcellulose) (HPC)
[18] = dose: 100.0 mg/kg/injection, schedule: Q01DX005 (ip), vehicle: Klucel (hydroxypropylcellulose) (HPC)
[19] = dose: 200.0 mg/kg/injection, schedule: Q01DX005 (ip), vehicle: Klucel (hydroxypropylcellulose) (HPC)

Measured: T/C

O=C(Nc1c(Cl)cccc1Cl)Oc1c(Br)cc(Br)cc1Br
inactive: dose: 60.0 mg/kg/injection, schedule: Q01DX005 (ip), vehicle: Klucel (hydroxypropylcellulose) (HPC) 108 % of control | dose: 120.0 mg/kg/injection, schedule: Q01DX005 (ip), vehicle: Klucel (hydroxypropylcellulose) (HPC) 101 % of control | dose: 240.0 mg/kg/injection, schedule: Q01DX005 (ip), vehicle: Klucel (hydroxypropylcellulose) (HPC) 102 % of control

Cc1ccc(C)c2c3c([nH]c12)-c1ccccc1CC3
inactive: [1] 103 % of control | [2] 107 % of control | [3] 103 % of control

CC(C)(C)SSCCN
inactive: [4] 103 % of control | [5] 109 % of control

CCP(CC)(c1ccccc1)=c1c(=O)c(Cl)c(Cl)c(=O)c1=O
inactive: [6] 100 % of control | [7] 102 % of control | [8] 100 % of control

CC(C)CC(NC(=O)C(CSCc1ccccc1)NC(=O)OCc1ccccc1)C(N)=O (stereo not given) (Cbz-Cys(Bn)-Leu-NH2; configuration not given here)
inactive: [6] 102 % of control | [7] 86 % of control | [8] 86 % of control

O=c1[nH]c(=S)nc2nc[nH]n12
inactive: [9] 100 % of control | [4] 98 % of control | [1] 97 % of control | [5] 100 % of control | [2] 100 % of control | [10] 103 % of control | [3] 106 % of control

C(=N\NC1=NCCN1)/c1ccc(-c2cn3cc(/C=N/NC4=NCCN4)ccc3n2)cc1
inactive: [11] 112 % of control

CC1(C)CC(=O)C=C(NC2CCCCC2)C1
inactive: [1] 91 % of control | [2] 100 % of control

CCN(CC)CCO/N=c1\nc(-c2ccccc2)c2cc(Cl)ccc2s1
inactive: [12] 100 % of control | [13] 103 % of control | [14] 104 % of control

O=[N+]([O-])c1ccc([S][Sn]([c]2ccccc2)([c]2ccccc2)[c]2ccccc2)cc1
inactive: dose: 50.0 mg/kg/injection, schedule: Q04DX003 (ip), vehicle: saline 101 % of control and 92 % of control | dose: 100.0 mg/kg/injection, schedule: Q04DX003 (ip), vehicle: saline 98 % of control and 104 % of control and 109 % of control | dose: 200.0 mg/kg/injection, schedule: Q04DX003 (ip), vehicle: saline 108 % of control and 109 % of control and 110 % of control | dose: 400.0 mg/kg/injection, schedule: Q04DX003 (ip), vehicle: saline 101 % of control and 102 % of control and 120 % of control

CN(c1ccc(C2=NCCN2)cc1)S(=O)(=O)c1ccc(Oc2ccc(S(=O)(=O)N(C)c3ccc(C4=NCCN4)cc3)cc2)cc1
inactive: [6] 100 % of control | [7] 100 % of control | [8] 109 % of control

CC(=O)NC1CCCCC1C1CCC([N+](=O)[O-])CC1 (stereo not given)
inactive: [4] 101 % of control | [5] 99 % of control | [10] 99 % of control

CC(C)(NCc1ccccc1)C(=O)OC(C)(C)C(=O)NCc1ccccc1
inactive: dose: 25.0 mg/kg/injection, schedule: Q01DX005 (ip), vehicle: saline with Tween-80 100 % of control and 103 % of control | [4] 95 % of control and 108 % of control | [5] 95 % of control

CC(=O)N(C(C)=O)N(C(C)=O)c1cc2ccccc2cn1
inactive: [4] 88 % of control | [5] 91 % of control

c1cc2n[pH]nc2cn1 (stereo not given)
inactive: dose: 15.0 mg/kg/injection, schedule: Q01DX005 (ip), vehicle: saline 120 % of control | dose: 30.0 mg/kg/injection, schedule: Q01DX005 (ip), vehicle: saline 107 % of control

CCCC(=O)C(CC)C(=O)CCC(=O)Nc1cccc([N+](=O)[O-])c1 (stereo not given)
inactive: [11] 101 % of control | [15] 104 % of control | [16] 109 % of control

COc1ccc(C(N)Cc2ccccc2)cc1 (stereo not given)
inactive: [17] 92 % of control | [18] 100 % of control | [19] 102 % of control

O=c1c2ccccc2sc2c([N+](=O)[O-])ccc(NCC3CCCN4CCCCC34)c12 (stereo not given)
inactive: dose: 38.5 mg/kg/injection, schedule: Q01DX005 (ip), vehicle: saline with Tween-80 96 % of control | dose: 77.0 mg/kg/injection, schedule: Q01DX005 (ip), vehicle: saline with Tween-80 96 % of control | dose: 154.0 mg/kg/injection, schedule: Q01DX005 (ip), vehicle: saline with Tween-80 118 % of control

CCN(CC)CCOC(=O)C(C)Oc1c2ccoc2c(OC)c2oc(C)cc(=O)c12 (stereo not given)
inactive: dose: 50.0 mg/kg/injection, schedule: Q01DX005 (ip), vehicle: saline 102 % of control | dose: 100.0 mg/kg/injection, schedule: Q01DX005 (ip), vehicle: saline 106 % of control | dose: 200.0 mg/kg/injection, schedule: Q01DX005 (ip), vehicle: saline 101 % of control

CC(Nc1ccc(Br)cc1[N+](=O)[O-])C(=O)O (stereo not given)
inactive: [1] 110 % of control | [3] 100 % of control

CCn1c(C)nc2ncn(-c3ccccc3)c2c1=O
inactive: [17] 100 % of control | [18] 100 % of control | [19] 98 % of control

Cc1ccc(C(C)(C)O)cc1O
inactive: dose: 8.75 mg/kg/injection, schedule: Q01DX005 (ip), vehicle: Klucel + Tween-80 100 % of control | dose: 17.5 mg/kg/injection, schedule: Q01DX005 (ip), vehicle: Klucel + Tween-80 100 % of control | dose: 35.0 mg/kg/injection, schedule: Q01DX005 (ip), vehicle: Klucel + Tween-80 103 % of control | dose: 70.0 mg/kg/injection, schedule: Q01DX005 (ip), vehicle: Klucel + Tween-80 103 % of control

O=c1oc2ccccc2cc1Cc1cc2ccccc2oc1=O
inactive: dose: 50.0 mg/kg/injection, schedule: Q01DX009 (ip), vehicle: Klucel (hydroxypropylcellulose) (HPC) 103 % of control | dose: 100.0 mg/kg/injection, schedule: Q01DX009 (ip), vehicle: Klucel (hydroxypropylcellulose) (HPC) 97 % of control

Cc1cc2c(cc1C)-c1c(oc3cc(C)c(C)cc13)-c1ccccc1C(=O)O2
inactive: [1] 94 % of control | [2] 97 % of control | [3] 97 % of control

O=[N+]([O-])c1cccnc1Sc1ccnc(Sc2ncccc2[N+](=O)[O-])n1
inactive: [1] 89 % of control | [12] 97 % of control | [13] 100 % of control and 96 % of control | [3] 89 % of control | [14] 89 % of control and 91 % of control

CCOc1ccc(N2C(=O)CC(Sc3ccccc3N)C2=O)cc1 (stereo not given)
inactive: [2] 110 % of control | [3] 115 % of control | dose: 400.0 mg/kg/injection, schedule: Q01DX009 (ip), vehicle: saline with Tween-80 120 % of control

CN(C)c1ccc(N=C2C=CC(=O)C=C2)cc1
inactive: dose: 1.5 mg/kg/injection, schedule: Q01DX009 (ip), vehicle: saline with Tween-80 101 % of control and 104 % of control and 106 % of control | dose: 3.0 mg/kg/injection, schedule: Q01DX009 (ip), vehicle: saline with Tween-80 105 % of control and 106 % of control (2×) | dose: 6.0 mg/kg/injection, schedule: Q01DX009 (ip), vehicle: saline with Tween-80 113 % of control (2×) and 120 % of control | dose: 12.0 mg/kg/injection, schedule: Q01DX009 (ip), vehicle: saline with Tween-80 100 % of control and 103 % of control | [9] 102 % of control

COc1cc(-c2cc(O)c(-c3ccc4ccccc4n3)c(=O)[nH]2)cc(OC)c1OC
inactive: dose: 0.93 mg/kg/injection, schedule: Q01DX005 (ip), vehicle: saline with Tween-80 102 % of control | dose: 1.88 mg/kg/injection, schedule: Q01DX005 (ip), vehicle: saline with Tween-80 98 % of control | dose: 3.75 mg/kg/injection, schedule: Q01DX005 (ip), vehicle: saline with Tween-80 96 % of control | [15] 87 % of control | [16] 90 % of control

N#CCS(=O)CC(N)C(=O)O (stereo not given)
inactive: [4] 102 % of control | [5] 101 % of control | [10] 100 % of control

CCn1c(Cl)c(/C=C2/N=C(c3ccccc3)OC2=O)c2ccccc21
inactive: dose: 25.0 mg/kg/injection, schedule: Q01DX001 (ip), vehicle: saline with Tween-80 95 % of control | dose: 50.0 mg/kg/injection, schedule: Q01DX001 (ip), vehicle: saline with Tween-80 86 % of control | dose: 100.0 mg/kg/injection, schedule: Q01DX001 (ip), vehicle: Klucel (hydroxypropylcellulose) (HPC) 92 % of control | dose: 400.0 mg/kg/injection, schedule: Q01DX001 (ip), vehicle: Klucel (hydroxypropylcellulose) (HPC) 86 % of control

CCCCCCC(O)C/C=C\CCCCCCc1c(C(=O)OC)[nH]c(=S)[nH]c1=O (stereo not given)
inactive: [11] 94 % of control | [15] 97 % of control

CCOC(=O)C1=C(C)Nc2cc[nH]c(=O)c2C1c1ccccc1Cl (stereo not given)
inactive: [11] 107 % of control | [15] 103 % of control | [16] 104 % of control
